According to US7700272B2, “Polynucleotides encoding acetylcholine-gated chloride channel subunits of Caenorhabditis elegans” (priority 2004, dated 2010):
Entries after “also recorded” stand apart in the source; their conditions may differ. Where two headings read alike, the source gives them in different places. Marks after values point to notes of the source that are not given here.

What was measured:
[1] = target: T1, ACC-1G6.4 channel (Caenorhabditis elegans, UniProt Q21005); assay: Two-electrode voltage-clamp of Xenopus oocytes expressing ACC-1G6.4 homomeric channel; type: cell-based, C. elegans; settings: for response (in words): 1 mM
T1 construct: Agonist: percentage of maximal acetylcholine-elicited response; other: compound at 0.1 mM; Agonist: percentage of maximal acetylcholine-elicited response; other: compound at 0.2 mM; other: compound at 0.4 mM; other: compound at 0.8 mM; Agonist: percentage of maxim
T1 sequence (Q21005 whole entry, looked up): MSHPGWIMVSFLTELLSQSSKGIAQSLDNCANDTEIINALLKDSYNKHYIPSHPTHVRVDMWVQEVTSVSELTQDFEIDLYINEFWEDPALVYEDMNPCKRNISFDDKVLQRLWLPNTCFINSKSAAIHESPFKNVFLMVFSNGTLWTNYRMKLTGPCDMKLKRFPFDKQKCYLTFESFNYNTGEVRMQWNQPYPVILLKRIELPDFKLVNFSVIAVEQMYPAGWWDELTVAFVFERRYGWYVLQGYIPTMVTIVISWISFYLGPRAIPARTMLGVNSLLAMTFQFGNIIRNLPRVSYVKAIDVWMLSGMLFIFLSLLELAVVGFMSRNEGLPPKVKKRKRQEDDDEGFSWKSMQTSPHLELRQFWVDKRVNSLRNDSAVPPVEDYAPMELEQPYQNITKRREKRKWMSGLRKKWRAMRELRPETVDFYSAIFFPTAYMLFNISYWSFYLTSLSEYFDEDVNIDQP
From the text: (§1) For capped cRNA synthesis, cDNAs were subcloned into the pT7N vector, which contains a T7 RNA polymerase promoter, the 5′- and 3′-UTR of Xenopus laevis beta-globin, and an encoded poly(A+) tail (Cary R B, Klymkowsky M W, Evans R M, Domingo A, Dent J A, Backhus L E (1994) Vimentin's tail interacts with actin-containing structures in vivo. J Cell Sci 107:1609-1622.). The pT7NcDNA constructs were linearized with Sal I (ACC-2D6.3) or BamHI (ACC-1G6.4) and transcribed using the MEGAscript Kit (Ambion, Austin, Tex., USA). Synthesized cRNAs were recovered by LiCl precipitation and resuspended in nuclease-free H2O at final concentration of 1 microgram/ml.
(§2) Oocytes were harvested from mature female Xenopus leavis according to standard procedures (Goldin, A. L. (1992) Maintenance of Xenopus laevis and oocyte injection. Methods Enzymol. 207: 266-79.). To remove inner ovarian epithelium, thecal cell layer, and follicular cells, the ovarian pieces were placed in OR-2 solution: 82.5 mM NaCl, 2 mM KCl, 1 mM MgCl2, and 5 mM Hepes (pH 7.5) containing 1 mg/ml type I collagenase (Sigma, St Louis Mo., USA) either for 3 hours at 20° C. with gentle agitation or for 1 hour followed by manual defolliculization. The stage VI defolliculated oocytes were placed in ND96 solution (96 mM NaCl, 2 mM KCl, 1.8 mM CaCl2, 1 mM MgCl2, and 5 mM Hepes, pH7.5). Oocytes were injected with 40 nl of cRNA using the Nanoject system (Drummond Scientific, Broomall, Pa., USA). Injected oocytes were incubated at 20° C. in ND96 supplemented with […] gentamycin and […] pyruvate. Oocytes were allowed to express cRNA for two days before measurements were taken.
(§3) Two-electrode voltage-clamp recordings were performed using the AxoClamp 2B amplifier (Axon Instruments, Foster City, Calif., USA). Microelectrodes were pulled from borosilicate glass capillaries (Word Precision Instruments, Inc., Sarasota, Fla., USA) on the P-97 micropipette puller Sutter Instruments, Novato, Calif., USA). […] Each oocyte was placed in RC-12 recording chamber (Warner Instrument Inc., Hamden, Conn., USA) or a Maltese cross chamber (ALA Scientific Instruments, Westbury, N.Y., USA) and clamped at −80 mV. Data were acquired at 1 kHz using Clampex software (Axon Instruments, Foster City, Calif., USA).
(§4) Dose-response curves for agonists were generated by their applying the agonist in increasing concentrations followed by 3-9 min washes at each concentration. To determine EC50 and Hill coefficient agonist dose response curves were fit using the following equation: f(I)=(Imax[I]^n/(EC50^n+[I]^n))+Imin, where I is the normalized response to agonist at certain concentration, Imax is the maximal response elicited by a saturating concentration of agonist, EC50 is the concentration of agonist inducing half-maximal response, n is the Hill coefficient, and Imin is the normalized response at lowest agonist concentration.
(§5) The mean and standard error of the mean of peak current responses of at least three oocytes per experiment are represented.
(§6) All drugs were obtained from Sigma-Aldrich (St. Louis, Mo. USA) except imidicloprid (IMI) which was provided by Crompton Co. (Guelph, ON, Canada). Drugs were dissolved in ND96 except IMI, which was made as a stock solution in DMSO and diluted to working concentrations in ND96. If required, drug solutions were adjusted to pH 7.5 with either NaOH or HCl. Fresh solutions were prepared before measurements and stored at 4° C. for 1-5 days.

[2] = target: ACC-2D6.3 channel (Caenorhabditis elegans, UniProt Q18812); assay: cell-based
Chain of ACC-2D6.3 channel (Q18812 whole entry, looked up): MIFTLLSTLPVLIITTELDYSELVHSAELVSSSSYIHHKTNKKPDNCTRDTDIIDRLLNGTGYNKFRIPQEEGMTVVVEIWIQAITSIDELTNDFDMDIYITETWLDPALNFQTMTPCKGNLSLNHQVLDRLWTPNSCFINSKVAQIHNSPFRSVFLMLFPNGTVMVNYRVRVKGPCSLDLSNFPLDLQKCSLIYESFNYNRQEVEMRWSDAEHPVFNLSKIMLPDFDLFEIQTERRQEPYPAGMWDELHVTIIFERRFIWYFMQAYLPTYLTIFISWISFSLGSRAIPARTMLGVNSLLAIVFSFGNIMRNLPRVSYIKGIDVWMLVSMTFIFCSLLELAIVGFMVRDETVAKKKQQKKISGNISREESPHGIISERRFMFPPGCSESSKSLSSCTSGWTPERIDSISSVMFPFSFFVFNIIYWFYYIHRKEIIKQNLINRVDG
From the text: as §1, §2, §3, §4, §5, §6

[3] = tested on: ACC-3D10.5; assay: Two-electrode voltage-clamp of Xenopus oocytes injected with ACC-3D10.5 cRNA; type: cell-based, C. elegans; settings: 1 mM
Experimental: (§7) Oocytes were harvested from mature female Xenopus leavis according to standard procedures (Goldin, A. L. (1992) Maintenance of Xenopus laevis and oocyte injection. Methods Enzymol. 207: 266-79.). To remove inner ovarian epithelium, thecal cell layer, and follicular cells, the ovarian pieces were placed in OR-2 solution: 82.5 mM NaCl, 2 mM KCl, 1 mM MgCl2, and 5 mM Hepes (pH 7.5) containing 1 mg/ml type I collagenase (Sigma, St Louis Mo., USA) either for 3 hours at 20° C. with gentle agitation or for 1 hour followed by manual defolliculization. The stage VI defolliculated oocytes were placed in ND96 solution (96 mM NaCl, 2 mM KCl, 1.8 mM CaCl2, 1 mM MgCl2, and 5 mM Hepes, pH7.5). Oocytes were injected with 40 nl of cRNA using the Nanoject system (Drummond Scientific, Broomall, Pa., USA). Injected oocytes were incubated at 20° C. in ND96 supplemented with 100 mg/ml gentamycin and 550 mg/ml pyruvate. Oocytes were allowed to express cRNA for two days before measurements were taken.

[4] = tested on: ACC-4E9.9; assay: Two-electrode voltage-clamp of Xenopus oocytes injected with ACC-4E9.9 cRNA; type: cell-based, C. elegans; settings: 1 mM
Experimental: as §7

[5] = target: Aplysia receptors mediating the slow desensitizing chloride-dependent response; settings: cited from earlier work
[6] = target: rat α9nAChRs (Rattus norvegicus, UniProt P43144); settings: cited from earlier work
Chain of rat α9nAChRs (P43144 26-479): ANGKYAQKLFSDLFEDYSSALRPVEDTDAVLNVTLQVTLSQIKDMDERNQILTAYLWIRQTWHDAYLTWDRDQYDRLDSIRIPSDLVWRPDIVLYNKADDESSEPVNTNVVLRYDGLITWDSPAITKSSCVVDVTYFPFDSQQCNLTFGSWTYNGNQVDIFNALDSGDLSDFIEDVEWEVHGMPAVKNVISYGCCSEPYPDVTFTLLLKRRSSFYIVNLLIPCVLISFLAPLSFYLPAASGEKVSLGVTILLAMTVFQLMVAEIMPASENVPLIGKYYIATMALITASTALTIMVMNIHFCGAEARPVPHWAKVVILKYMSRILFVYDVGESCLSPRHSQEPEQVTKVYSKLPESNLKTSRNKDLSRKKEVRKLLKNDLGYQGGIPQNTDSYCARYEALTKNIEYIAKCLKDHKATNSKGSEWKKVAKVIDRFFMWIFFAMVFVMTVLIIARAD

[7] = tested on: ACC-2D6.3+ACC-3D10.5; type: cell-based, C. elegans; settings: 1 mM
Experimental: as §7

[8] = tested on: ACC-2D6.3+ACC-4E9.9; type: cell-based, C. elegans; settings: 1 mM
Experimental: as §7

[9] = concentration tested in brackets where printed
[10] = read-out: Agonist: percentage of maximal acetylcholine-elicited response
[11] = concentration tested in brackets where printed, listed as d-tubocurarine

O=[N+]([O-])NC1=NCCN1Cc1ccc(Cl)nc1 [IMI, imidacloprid]
Antagonist: percentage decrease in a response to acetylcholine [1]: 0% | activation at 10 µM ([1]; compound at 10 μM, read-out: Agonist: percentage of maximal acetylcholine-elicited response): 0% | antagonist action (in words) [1, 9]: no effect | antagonist action (in words) [2]: only partially blocked

NCCc1c[nH]cn1 [histamine]
response (in words) [1]: did not respond | response (in words) [3]: did not respond | response (in words) [4]: did not respond

C[N+](C)(C)CCCCCC[N+](C)(C)C [C6, hexamethonium]
agonist action (in words) [1]: simultaneously as an agonist and an antagonist | antagonist action (in words) [1]: antagonists | activation at 200 µM [1, 10]: 0% | activation at 1000 µM [1, 10]: 10 ± 2.6% | Agonist: percentage of maximal acetylcholine-elicited response [2]: 0% | antagonist action (in words) [2]: antagonists

CO[C@H]1CC=C2CCN3CCC4=C(CC(=O)OC4)[C@]23C1 [dβe, dihydro-β-erythroidine]
IC50 ([5]; Table 4): ~20 µM | antagonist action (in words) [5]: Antagonist | IC50 ([6]; Table 4, read-out: IC50): 24.2 µM | antagonist action (in words) [6]: Antagonist | IC50 ([1]; Table 4, order of magnitude, read-out: IC50 (range)): ~100 µM | Agonist: percentage of maximal acetylcholine-elicited response ([1]; compound at 0.4 mM): 0% | antagonist action (in words) [1, 9]: Antagonist | antagonist action (in words) ([1]; concentration tested in brackets where printed, listed as Dihydro-β-erythroidine): antagonist | antagonist action (in words) ([1]; concentration tested in brackets where printed, listed as dihydro-β-erythroidine): antagonists | Agonist: percentage of maximal acetylcholine-elicited response [2]: 0% | IC50 [2]: ~10 µM

NCCCC(=O)O [GABA]
response (in words) [1]: did not respond | response (in words) [7]: Neither did ACC-2D6.3+ACC-3D10.5 nor ACC-2D6.3+ACC-4E9.9 expressing oocytes respond | response (in words) [3]: did not respond | response (in words) [4]: did not respond | response (in words) ([2]; 1 mM): did not respond | response (in words) [8]: Neither did ACC-2D6.3+ACC-3D10.5 nor ACC-2D6.3+ACC-4E9.9 expressing oocytes respond

N[C@@H](CCC(=O)O)C(=O)O [glutamate]
response (in words) [1]: did not respond | response (in words) [7]: Neither did ACC-2D6.3+ACC-3D10.5 nor ACC-2D6.3+ACC-4E9.9 expressing oocytes respond | response (in words) [3]: did not respond | response (in words) [4]: did not respond | response (in words) ([2]; 1 mM): did not respond | response (in words) [8]: Neither did ACC-2D6.3+ACC-3D10.5 nor ACC-2D6.3+ACC-4E9.9 expressing oocytes respond

α-bungarotoxin [α-BT]
IC50 [5]: ~1 µM | antagonist action (in words) [5]: Antagonist | antagonist action (in words) [6]: Antagonist | IC50 ([6]; read-out: IC50): 0.004 µM | Agonist: percentage of maximal acetylcholine-elicited response [1]: 0% | Antagonist: percentage decrease in a response to acetylcholine [1]: 0% | antagonist action (in words) [1]: no effect; also recorded: not blocked; also recorded: no antagonistic | Agonist: percentage of maximal acetylcholine-elicited response [2]: 0% | Antagonist: percentage decrease in a response to acetylcholine [2]: 0%

COc1cc2c3cc1Oc1cc(ccc1O)C[C@@H]1c4c(cc(OC)c(O)c4Oc4ccc(cc4)C[C@@H]3N(C)CC2)CC[N+]1(C)C [d-TC, d-tubocurarine]
IC50 ([5]; Table 4): ~40 µM | antagonist action (in words) [5]: Antagonist | IC50 ([6]; Table 4, read-out: IC50): 0.3 µM | antagonist action (in words) [6]: Antagonist | Antagonist: percentage decrease in a response to acetylcholine [1]: 100^a ^ % | IC50 ([1]; Table 4, order of magnitude, read-out: IC50 (range or bound)): < 20 µM | Agonist: percentage of maximal acetylcholine-elicited response ([1]; compound at 20 μM): 0% | antagonist action (in words) [1, 9]: Antagonist | antagonist action (in words) [1, 11]: irreversibly | Agonist: percentage of maximal acetylcholine-elicited response ([2]; compound at 20 μM): 0% | antagonist action (in words) [2, 9]: Antagonist | antagonist action (in words) [2, 11]: irreversibly | IC50 ([2]; read-out: IC50 (range or bound), Table 4, order of magnitude): < 20 µM

O=C1C[C@@H]2OCC=C3CN4CC[C@]56c7ccccc7N1[C@H]5[C@H]2[C@H]3C[C@H]46 [strychnine]
IC50 [6]: 0.0179 µM | Antagonist: percentage decrease in a response to acetylcholine [1]: 96 ± 1.2% | IC50 ([1]; IC50 (block of channel)): 4.61 ± 0.27 µM | IC50 ([1]; IC50 (range or bound)): ~10 µM | activation at 50 µM [1, 10]: 0% | Agonist: percentage of maximal acetylcholine-elicited response [2]: 0% | antagonist action (in words) [2]: Antagonist | estimated Hill coefficient (antagonist) [2]: 1.38±0.12 | IC50 ([2]; IC50 (block of channel)): 2.95 ± 0.8 µM | IC50 ([2]; IC50 (range or bound)): ~10 µM

NCC(=O)O [glycine]
response (in words) [1]: did not respond | response (in words) [3]: did not respond | response (in words) [4]: did not respond

C[C@@H]1O[C@H](C[N+](C)(C)C)C[C@H]1O [muscarine]
IC50 [6]: 84 µM | agonist action (in words) [6]: no agonistic activity | antagonist action (in words) [6]: Antagonist | Antagonist: percentage decrease in a response to acetylcholine [1]: 51.6 ± 5.9% | IC50 (range) [1]: IC50: mM range | agonist action (in words) [1]: no agonistic activity | antagonist action (in words) [1]: Antagonist; also recorded: weak antagonistic activity | activation at 1000 µM [1, 10]: 0%

CN1[C@@H]2CC[C@H]1C[C@@H](OC(=O)C(CO)c1ccccc1)C2 (stereo partly drawn) [atropine]
IC50 [6]: 1 µM | agonist action (in words) [6]: no agonistic | antagonist action (in words) [6]: Antagonist

NCCc1c[nH]c2ccc(O)cc12 [serotonin]
response (in words) [1]: not observed | activation at 1000 µM [1, 10]: 0% | response (in words) [7]: Neither did ACC-2D6.3+ACC-3D10.5 nor ACC-2D6.3+ACC-4E9.9 expressing oocytes respond | response (in words) [3]: not observed | response (in words) [4]: not observed | current response ([2]; 1 mM): 10-30 nA | Agonist: percentage of maximal acetylcholine-elicited response ([2]; compound at 1 mM): 3.7 ± 0.4% | response (in words) [8]: Neither did ACC-2D6.3+ACC-3D10.5 nor ACC-2D6.3+ACC-4E9.9 expressing oocytes respond
